Assay results published in patent publication US5858994A, “Carbohydrate conjugates as inhibitors of cell adhesion” (priority 1994, dated 1999).
Like-named read-outs stand apart in the source and are kept apart here. Values belong to the compound of their own block, whether it stands above or below them.

Tests used:
selectin receptors [1] = settings: compared with sialyl-Lewis X; cited from earlier work
E-Selectin = target: T1, E-Selectin (Homo sapiens, UniProt P16581); experiment: Inhibition of HL60 cell adhesion to soluble, recombinant E-selectin (E-selectin-IgG1 fusion protein); assay type: cell-based
T1 sequence (P16581 22-556): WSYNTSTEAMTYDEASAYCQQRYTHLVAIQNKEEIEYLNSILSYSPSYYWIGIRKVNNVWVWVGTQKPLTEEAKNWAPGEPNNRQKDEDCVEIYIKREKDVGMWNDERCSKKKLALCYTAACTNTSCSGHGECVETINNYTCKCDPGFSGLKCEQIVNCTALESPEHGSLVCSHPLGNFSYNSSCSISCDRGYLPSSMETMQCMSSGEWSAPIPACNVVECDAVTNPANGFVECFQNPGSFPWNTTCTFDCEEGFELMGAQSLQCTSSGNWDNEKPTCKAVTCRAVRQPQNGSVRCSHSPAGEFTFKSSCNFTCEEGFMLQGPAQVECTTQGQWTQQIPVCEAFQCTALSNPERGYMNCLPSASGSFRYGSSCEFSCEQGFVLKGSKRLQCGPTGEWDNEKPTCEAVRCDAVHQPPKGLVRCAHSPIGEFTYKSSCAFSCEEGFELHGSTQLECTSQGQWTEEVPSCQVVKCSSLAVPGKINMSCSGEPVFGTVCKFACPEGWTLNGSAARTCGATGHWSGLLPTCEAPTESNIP
From the text: (§1) Carrying out these assays to measure the inhibitory activity of the compounds according to the invention on cell adhesion of promyelocytic cells by means of selecting is described in detail in European Published Application EP 0 601 417.
(§2) In order to test the efficacy of the carbohydrate conjugates on the interaction between the E- and P-selectins (former nomenclature ELAM-1 or GMP-140) with their ligands, an assay is used which in each case is specific only for one of these interactions. The ligands are supplied in their natural form as surface structures on promyelocytic HL60 cells. Since HL60 cells contain ligands and adhesion molecules of very different specificity, the desired specificity of the assay can only be produced by means of the binding component. The binding components used were genetically prepared soluble fusion proteins from the in each case extracytoplasmatic domains of E- or P-selectin and the constant region of a human immunoglobulin of the IgG1 subclass.
Preparation of L-selectin-IgG1
For the preparation of soluble L-selectin-IgG1 fusion protein, the genetic construct "ELAM-Rg" published by Walz et al., 1990 was used.
For expression, the plasmid DNA was transfected in COS-7 cells (ATCC) by means of DEAE-dextran (Molecular Biology Methods: see Ausubel, F. M., Brent, R., Kingston, R. E., Moore, D. D., Seidman, J. G., Struhl, K. and Smith, J. A. 1990. Current Protocols in Molecular Biology, John Wiley, New York). Seven days after transfection, the culture supernatant is recovered, freed from cells and cell fragments by centrifugation and transferred to 25 mM HEPES pH 7.0, 0.3 mM PMSF, 0.02% sodium azide and stored at +4° C.
(§3) 1. 96-well microtiter test plates (Nunc Maxisorb) are incubated at room temperature for 2 hours with 100 μl of a goat anti-human IgG antibody (Sigma) diluted (1+100) in 50 mM Tris pH 9.5. After removing the antibody solution washing is carried out once with PBS.
(§4) 2. 150 μl of the blocking buffer are left in the wells at room temperature for 1 hour. The composition of the blocking buffer is: 0.1% gelatin, 1% BSA, 5% calf serum, 0.2 mM PMSF, 0.02% sodium azide. After removing the blocking buffer washing is carried out once with PBS.
(§5) 3. 100 μl each of cell culture supernatant of appropriately transfected and expressing COS cells are pipetted into the wells. Incubation is carried out at room temperature for 2 hours. After removing the cell culture supernatant washing is carried out once with PBS.
(§6) 4. 20 μl of binding buffer are added to the wells. The binding buffer has the composition: 50 mM HEPES, pH 7.5; 100 mM NaCl; 1 mg/ml BSA; 2 mM MgCl2; 1 mM CaCl2; 3 mM MnCl2; 0.02% sodium azide; 0.2 mM PMSF. 5 μl of the test substance are pipetted into this, mixed by swirling the plate and incubated at room temperature for 10 minutes.
(§7) 5. 50 ml of an HL60 cell culture containing 200,000 cells/ml are centrifuged at 350 g for 4 minutes. The pellet is resuspended in 10 ml of RPMI 1640 and the cells are centrifuged again. For labeling the cells, 50 μg of BCECF-AM (Molecular Probes) are dissolved in 5 μl of anhydrous DMSO; 1.5 ml of RPMI 1640 are then added to the BCECF-AM/DMSO solution. The cells are resuspended using this solution and incubated at 37° C. for 30 minutes. After centrifugation at 350 g for 2 minutes, the labeled cell pellet is resuspended in 11 ml of binding buffer and the resuspended cells are distributed into the microtiter plate wells in 100 μl aliquots. The plate is allowed to stand at room temperature for 10 minutes in order to allow the cells to sediment on the bottom of the test plate. In the course of this, the cells have the opportunity to adhere to the coated plastic.
(§8) 6. To stop the test, the microtiter plate is immersed completely in the stop buffer (25 mM tris, pH 7.5; 125 mM NaCl; 0.1% BSA; 2 mM MgCl2; 1 mM CaCl2; 3 mM MnCl2; 0.02% sodium azide) at an angle of 45°. The stop buffer is removed from the wells by inversion and the procedure is repeated a further two times.

P-Selectin = target: T2, P-Selectin (Homo sapiens, UniProt P16109); experiment: Inhibition of HL60 cell adhesion to soluble, recombinant P-selectin (P-selectin-IgG1 fusion protein); assay type: cell-based
T2 sequence (P16109 42-771): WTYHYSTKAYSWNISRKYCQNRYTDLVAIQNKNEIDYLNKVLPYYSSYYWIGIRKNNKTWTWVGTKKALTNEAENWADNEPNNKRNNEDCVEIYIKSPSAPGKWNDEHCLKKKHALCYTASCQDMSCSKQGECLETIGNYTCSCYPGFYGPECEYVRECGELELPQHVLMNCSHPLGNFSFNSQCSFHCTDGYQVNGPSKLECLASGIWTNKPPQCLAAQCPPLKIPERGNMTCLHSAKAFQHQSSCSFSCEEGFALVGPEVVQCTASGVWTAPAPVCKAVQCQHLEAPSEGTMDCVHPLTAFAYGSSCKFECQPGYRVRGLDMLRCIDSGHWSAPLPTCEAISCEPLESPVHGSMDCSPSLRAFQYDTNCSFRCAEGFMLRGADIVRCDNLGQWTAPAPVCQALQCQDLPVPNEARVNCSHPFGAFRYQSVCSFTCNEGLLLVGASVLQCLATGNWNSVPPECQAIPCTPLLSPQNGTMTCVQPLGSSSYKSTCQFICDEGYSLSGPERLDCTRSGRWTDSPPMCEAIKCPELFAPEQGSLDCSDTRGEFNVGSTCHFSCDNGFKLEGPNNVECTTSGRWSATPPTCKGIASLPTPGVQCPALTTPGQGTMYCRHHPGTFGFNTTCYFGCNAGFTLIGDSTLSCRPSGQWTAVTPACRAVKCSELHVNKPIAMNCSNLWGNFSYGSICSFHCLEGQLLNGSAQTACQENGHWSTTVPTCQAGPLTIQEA
From the text: as §1, §2
Preparation of P-selectin-IgG1
For preparation of the soluble P-selectin-IgG1 fusion protein, the genetic construct "ICD62Rg" published by Aruffo et al., 1991 is used. The further procedure corresponds to the preparation of L-selectin-IgG1 presented under A1.
as §3, §4, §5, §6, §7, §8
7. Measurement of the BCECF-AM-labeled cells firmly adhering to the wells is carried out in a cytofluorimeter (Millipore) at a sensitivity setting of 4, an excitation wavelength of 485/220 nm and an emission wavelength of 530/250 nm.

[2] = hydrolysis in aqueous solution; assay type: physicochemical; settings: elimination of maleic acid, C45 H78 N4 O24 formed
[3] = tested on: P-selectin-dependent lung injuries; settings: animal experiments; cited from earlier work
[4] = tested on: myocardial reperfusion injuries; settings: animal experiments; cited from earlier work
selectin receptors [5] = experiment: binding to selectin receptors, statements in words
[6] = inhibition of HL60 cell adhesion to soluble, recombinant adhesion molecules; read-out: IC50 E-Selectin
[7] = inhibition of HL60 cell adhesion to soluble, recombinant adhesion molecules; read-out: IC50 P-Selectin

Compound: CC(=O)N[C@@H]1[C@@H](O[C@@H]2O[C@H](CO)[C@H](O)[C@H](O[C@]3(C(=O)O)C[C@H](O)[C@@H](NC(C)=O)[C@H]([C@H](O)[C@H](O)CO)O3)[C@H]2O)[C@H](O[C@@H]2O[C@@H](C)[C@@H](O)[C@@H](O)[C@@H]2O)[C@@H](CO)O[C@H]1O [sialyl-Lewis A]
- binding to selectin receptors relative to the X type (selectin receptors [1]): comparable affinity

Compound: CC(=O)N[C@H]1[C@H](OCCCCCCNC(=O)CCCCCNC(=O)CCC(CCC(=O)NCCCCCC(=O)NCCCCCCO[C@@H]2O[C@H](CO)[C@@H](O[C@@H]3O[C@H](CO)[C@H](O)[C@H](O[C@]4(C(=O)O)C[C@H](O)[C@@H](NC(C)=O)[C@H]([C@H](O)[C@H](O)CO)O4)[C@H]3O)[C@H](O[C@@H]3O[C@@H](C)[C@@H](O)[C@@H](O)[C@@H]3O)[C@H]2NC(C)=O)(CCC(=O)NCCCCCC(=O)NCCCCCCO[C@@H]2O[C@H](CO)[C@@H](O[C@@H]3O[C@H](CO)[C@H](O)[C@H](O[C@]4(C(=O)O)C[C@H](O)[C@@H](NC(C)=O)[C@H]([C@H](O)[C@H](O)CO)O4)[C@H]3O)[C@H](O[C@@H]3O[C@@H](C)[C@@H](O)[C@@H](O)[C@@H]3O)[C@H]2NC(C)=O)[N+](=O)[O-])O[C@H](CO)[C@@H](O[C@@H]2O[C@H](CO)[C@H](O)[C@H](O[C@]3(C(=O)O)C[C@H](O)[C@@H](NC(C)=O)[C@H]([C@H](O)[C@H](O)CO)O3)[C@H]2O)[C@@H]1O[C@@H]1O[C@@H](C)[C@@H](O)[C@@H](O)[C@@H]1O [II-3]
- IC50 (E-Selectin; read-out: IC50 E-Selectin; inhibition of HL60 cell adhesion to soluble, recombinant adhesion molecules): 400 µM
- IC50 (P-Selectin; read-out: IC50 P-Selectin; inhibition of HL60 cell adhesion to soluble, recombinant adhesion molecules): > 1000 µM

- IC50 (E-Selectin; [6]): 20 µM
- IC50 (P-Selectin; [7]): 100 µM
Compound: CCCCCCCCCCCCCCCC(=O)N[C@@H](CSCC(COC(=O)CCCCCCCCCCCCCCC)OC(=O)CCCCCCCCCCCCCCC)C(=O)NCCCCCCO[C@@H]1O[C@H](CO)[C@@H](O[C@@H]2O[C@H](CO)[C@H](O)[C@H](O[C@]3(C(=O)O)C[C@H](O)[C@@H](NC(C)=O)[C@H]([C@H](O)[C@H](O)CO)O3)[C@H]2O)[C@H](O[C@@H]2O[C@@H](C)[C@@H](O)[C@@H](O)[C@@H]2O)[C@H]1NC(C)=O (stereo partly shown) [Compound I-13]

Compound: CC(=O)N[C@H]1[C@H](OCCCCCCNC(=O)C2CCC(CNC(=O)/C=C\C(=O)O)CC2)O[C@H](CO)[C@@H](O[C@@H]2O[C@H](CO)[C@H](O)[C@H](O[C@]3(C(=O)O)C[C@H](O)[C@@H](NC(C)=O)[C@H]([C@H](O)[C@H](O)CO)O3)[C@H]2O)[C@@H]1O[C@@H]1O[C@@H](C)[C@@H](O)[C@@H](O)[C@@H]1O (stereo partly shown)
- hydrolysis in aqueous solution [2]: slowly hydrolyzes further in aqueous solution

- IC50 (E-Selectin; [6]): 390 µM
- IC50 (P-Selectin; [7]): 400 µM
Compound: CC(=O)N[C@H]1[C@H](OCCCCCCNC(=O)CCSSc2ccccn2)O[C@H](CO)[C@@H](O[C@@H]2O[C@H](CO)[C@H](O)[C@H](O[C@]3(C(=O)O)C[C@H](O)[C@@H](NC(C)=O)[C@H]([C@H](O)[C@H](O)CO)O3)[C@H]2O)[C@@H]1O[C@@H]1O[C@@H](C)[C@@H](O)[C@@H](O)[C@@H]1O [Compound I-10]

Compound: CC(=O)N[C@@H]1[C@@H](O[C@@H]2O[C@@H](C)[C@@H](O)[C@@H](O)[C@@H]2O)[C@H](O[C@@H]2O[C@H](CO)[C@H](O)[C@H](O[C@]3(C(=O)O)C[C@H](O)[C@@H](NC(C)=O)[C@H]([C@H](O)[C@H](O)CO)O3)[C@H]2O)[C@@H](CO)O[C@H]1O [SLeX]
- use in P-selectin-dependent lung injuries [3]: successfully used
- use in myocardial reperfusion injuries [4]: successfully used

- binding of the peptide on its own to selectins (selectin receptors [5]): does not bind
Compound: Arg-Gly-Asp-Ala (RGDA; printed: Arg-Gly-Asp-Ala)

- IC50 (E-Selectin; [6]): > 800 µM
- IC50 (P-Selectin; [7]): > 800 µM
Compound: CSCC[C@H](NC=O)C(=O)N[C@@H](CC(C)C)C(=O)N[C@@H](Cc1ccccc1)C(=O)NCCCCCCO[C@@H]1O[C@H](CO)[C@@H](O[C@@H]2O[C@H](CO)[C@H](O)[C@H](O[C@]3(C(=O)O)C[C@H](O)[C@@H](NC(C)=O)[C@H]([C@H](O)[C@H](O)CO)O3)[C@H]2O)[C@H](O[C@@H]2O[C@@H](C)[C@@H](O)[C@@H](O)[C@@H]2O)[C@H]1NC(C)=O [Compound I-12]
